# From patent publication US8921362B2, “6,7-dialkoxy quinazoline derivatives and methods of treating drug resistant and other tumors” (Natco Pharma Limited, priority 2008, dated 2014)
# Tests used:
# Assay in all cases: KinomeScan
# Type in all cases: binding
# Conditions in all cases: read-out: % Ctrl @ 10000 nM
# SRPK1 = target: T1, SRPK1 (Homo sapiens, UniProt Q96SB4)
# T1 construct: host or cells: T7 phage grown in E. coli (BL21-derived)
# Method in brief: (§1)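 Lysates from phage-infected E. coli (32° C., shaking until lysis) were filtered and exposed to biotin-blocked ligand beads together with test compound. Eluted phage was counted by quantitative PCR.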
# DAPK1 = target: T2, DAPK1 (Homo sapiens, UniProt P53355)
# T2 construct: purchased Ambit Biosciences Corp (KinomeScan); host or cells: T7 phage in E. coli host derived from BL21
# Method in brief: as §1
# TIE1 = target: T3, TIE1 (Homo sapiens, UniProt P35590)
# T3 construct: host or cells: T7 phage grown in E. coli (BL21-derived)
# Method in brief: as §1
# ROCK2 = target: T4, ROCK2 (Homo sapiens, UniProt O75116)
# T4 construct: host or cells: E. coli host derived from BL21, T7 phage display
# Method in brief: as §1
# DCAMKL3 = target: T5, DCAMKL3 (Homo sapiens, UniProt Q9C098)
# T5 construct: purchased Ambit Biosciences Corp (KinomeScan); host or cells: T7 phage in E. coli host derived from BL21
# Method in brief: as §1
# PRKCD = target: T6, PRKCD (Homo sapiens, UniProt Q05655)
# T6 construct: host or cells: T7 phage in E. coli host derived from BL21
# T6 sequence (Q05655 whole entry): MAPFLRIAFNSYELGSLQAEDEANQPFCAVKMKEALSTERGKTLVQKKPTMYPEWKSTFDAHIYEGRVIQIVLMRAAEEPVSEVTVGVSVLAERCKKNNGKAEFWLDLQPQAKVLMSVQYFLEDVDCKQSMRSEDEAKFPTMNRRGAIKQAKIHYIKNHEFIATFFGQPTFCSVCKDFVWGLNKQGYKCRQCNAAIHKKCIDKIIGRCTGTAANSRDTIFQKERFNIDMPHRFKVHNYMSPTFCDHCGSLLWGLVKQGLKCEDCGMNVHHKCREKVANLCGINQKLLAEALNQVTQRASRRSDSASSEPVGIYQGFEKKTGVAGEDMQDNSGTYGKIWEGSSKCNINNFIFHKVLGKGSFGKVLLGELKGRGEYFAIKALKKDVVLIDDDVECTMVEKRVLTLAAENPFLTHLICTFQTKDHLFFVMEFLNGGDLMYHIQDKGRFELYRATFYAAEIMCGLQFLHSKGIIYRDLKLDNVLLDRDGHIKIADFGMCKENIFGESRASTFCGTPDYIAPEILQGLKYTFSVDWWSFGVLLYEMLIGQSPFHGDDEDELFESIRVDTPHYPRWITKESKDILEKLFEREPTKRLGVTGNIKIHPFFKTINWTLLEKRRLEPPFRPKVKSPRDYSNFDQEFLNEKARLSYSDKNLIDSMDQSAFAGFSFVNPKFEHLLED
# Method in brief: as §1
# AAK1 = target: T7, AAK1 (Homo sapiens, UniProt Q2M2I8)
# T7 construct: host or cells: E. coli (BL21-derived), T7 phage lysate
# Method in brief: as §1
# [1] = target: T8, RPS6KA5(Kin.Dom.-1-N-terminal) (Homo sapiens, UniProt O75582)
# T8 construct: RPS6KA5(Kin.Dom.-1-N-terminal); host or cells: E. coli host derived from BL21, T7 phage display
# Method in brief: as §1
# RIOK2 = target: T9, RIOK2 (Homo sapiens, UniProt Q9BVS4)
# T9 construct: host or cells: E. coli host derived from BL21, T7 phage display
# Method in brief: as §1
# LIMK1 = target: T10, LIMK1 (Homo sapiens, UniProt P53667)
# T10 construct: host or cells: T7 phage grown in E. coli host derived from BL21
# Method in brief: as §1
# CAMK4 = target: T11, CAMK4 (Homo sapiens, UniProt Q16566)
# T11 construct: host or cells: T7 phage in E. coli host derived from BL21
# T11 sequence (Q16566 whole entry): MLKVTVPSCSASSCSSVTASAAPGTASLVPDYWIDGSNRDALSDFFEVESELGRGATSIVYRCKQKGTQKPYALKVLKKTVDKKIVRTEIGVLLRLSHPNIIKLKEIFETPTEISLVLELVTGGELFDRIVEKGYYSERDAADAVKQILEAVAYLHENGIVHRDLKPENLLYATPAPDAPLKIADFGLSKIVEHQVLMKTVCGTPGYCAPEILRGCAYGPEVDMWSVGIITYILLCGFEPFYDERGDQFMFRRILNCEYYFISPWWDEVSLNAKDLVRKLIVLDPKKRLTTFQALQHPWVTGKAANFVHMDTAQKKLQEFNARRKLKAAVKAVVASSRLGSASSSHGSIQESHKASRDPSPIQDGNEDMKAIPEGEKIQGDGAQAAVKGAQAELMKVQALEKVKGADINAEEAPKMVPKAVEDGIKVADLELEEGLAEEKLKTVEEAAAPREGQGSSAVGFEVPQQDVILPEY
# Method in brief: as §1
# EGFR(L858R) = target: T12, EGFR(L858R) (Homo sapiens, UniProt P00533, L858R)
# T12 construct: purchased Ambit Biosciences Corp; host or cells: T7 phage in E. coli host derived from BL21
# Method in brief: as §1
# CDC2L2 = target: T13, CDC2L2 (Homo sapiens, UniProt Q9UQ88)
# T13 construct: host or cells: T7 phage in E. coli host derived from BL21
# Method in brief: as §1
# DRAK2 = target: T14, DRAK2 (Homo sapiens, UniProt O94768)
# T14 construct: purchased Ambit Biosciences Corp (KinomeScan); host or cells: T7 phage in E. coli host derived from BL21
# Method in brief: as §1
# DMPK2 = target: T15, DMPK2 (Homo sapiens, UniProt Q6DT37)
# T15 construct: purchased Ambit Biosciences Corp (KinomeScan); host or cells: T7 phage in E. coli host derived from BL21
# Method in brief: as §1
# RET(V804M) = target: T16, RET(V804M) (Homo sapiens, UniProt P07949, V804M)
# T16 construct: host or cells: E. coli host derived from BL21, T7 phage display
# T16 sequence (P07949 29-1114 V804M): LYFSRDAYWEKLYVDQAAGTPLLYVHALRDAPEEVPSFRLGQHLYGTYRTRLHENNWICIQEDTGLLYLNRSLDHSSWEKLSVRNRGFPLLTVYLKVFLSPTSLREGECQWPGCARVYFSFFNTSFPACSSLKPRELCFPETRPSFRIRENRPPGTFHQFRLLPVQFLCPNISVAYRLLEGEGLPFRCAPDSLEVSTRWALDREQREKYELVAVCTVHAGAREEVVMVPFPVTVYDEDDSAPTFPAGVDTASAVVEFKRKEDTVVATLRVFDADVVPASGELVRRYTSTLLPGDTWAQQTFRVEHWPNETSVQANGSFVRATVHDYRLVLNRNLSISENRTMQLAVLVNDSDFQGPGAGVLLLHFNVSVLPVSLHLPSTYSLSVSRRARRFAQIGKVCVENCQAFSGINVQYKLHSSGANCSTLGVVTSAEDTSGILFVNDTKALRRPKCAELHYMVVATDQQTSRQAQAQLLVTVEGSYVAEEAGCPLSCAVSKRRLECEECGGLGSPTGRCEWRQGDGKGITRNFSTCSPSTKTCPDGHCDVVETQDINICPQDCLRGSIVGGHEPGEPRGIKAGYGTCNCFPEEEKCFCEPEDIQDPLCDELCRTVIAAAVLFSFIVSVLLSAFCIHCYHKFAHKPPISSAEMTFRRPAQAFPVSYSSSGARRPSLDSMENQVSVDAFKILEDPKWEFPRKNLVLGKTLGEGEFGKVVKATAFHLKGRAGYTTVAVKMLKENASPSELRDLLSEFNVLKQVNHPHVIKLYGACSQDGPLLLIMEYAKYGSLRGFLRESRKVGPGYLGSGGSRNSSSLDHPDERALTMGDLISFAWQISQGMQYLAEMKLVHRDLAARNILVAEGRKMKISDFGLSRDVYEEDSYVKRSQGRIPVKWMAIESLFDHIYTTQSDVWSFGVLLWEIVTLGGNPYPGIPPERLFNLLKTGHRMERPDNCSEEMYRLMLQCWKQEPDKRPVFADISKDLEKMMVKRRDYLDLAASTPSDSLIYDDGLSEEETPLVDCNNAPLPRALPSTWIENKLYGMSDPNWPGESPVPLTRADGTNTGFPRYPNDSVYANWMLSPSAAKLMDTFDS
# Method in brief: as §1
# TNK1 = target: T17, TNK1 (Homo sapiens, UniProt Q13470)
# T17 construct: host or cells: E. coli host derived from BL21, T7 phage
# T17 sequence (Q13470 whole entry): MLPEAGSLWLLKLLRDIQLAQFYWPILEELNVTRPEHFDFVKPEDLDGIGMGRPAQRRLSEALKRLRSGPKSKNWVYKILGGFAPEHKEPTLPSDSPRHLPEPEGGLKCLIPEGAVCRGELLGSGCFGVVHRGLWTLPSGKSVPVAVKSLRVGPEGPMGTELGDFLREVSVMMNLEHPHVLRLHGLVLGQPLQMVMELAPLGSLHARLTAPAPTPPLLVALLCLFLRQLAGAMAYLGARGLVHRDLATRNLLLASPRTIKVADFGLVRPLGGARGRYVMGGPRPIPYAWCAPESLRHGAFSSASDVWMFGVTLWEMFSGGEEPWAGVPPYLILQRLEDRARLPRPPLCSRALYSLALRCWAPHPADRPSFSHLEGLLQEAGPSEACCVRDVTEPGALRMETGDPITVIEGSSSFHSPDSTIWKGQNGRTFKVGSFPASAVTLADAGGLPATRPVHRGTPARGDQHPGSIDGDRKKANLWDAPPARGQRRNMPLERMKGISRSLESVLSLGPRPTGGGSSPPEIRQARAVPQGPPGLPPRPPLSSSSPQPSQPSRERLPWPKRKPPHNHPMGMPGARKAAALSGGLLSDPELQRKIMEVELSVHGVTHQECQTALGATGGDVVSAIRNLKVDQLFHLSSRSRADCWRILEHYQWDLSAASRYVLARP
# Method in brief: as §1
# YANK3 = target: T18, YANK3 (Homo sapiens, UniProt Q86UX6)
# T18 construct: host or cells: E. coli host derived from BL21, T7 phage
# Method in brief: as §1
# STK33 = target: T19, STK33 (Homo sapiens, UniProt Q9BYT3)
# T19 construct: host or cells: T7 phage grown in E. coli (BL21-derived)
# T19 sequence (Q9BYT3 whole entry): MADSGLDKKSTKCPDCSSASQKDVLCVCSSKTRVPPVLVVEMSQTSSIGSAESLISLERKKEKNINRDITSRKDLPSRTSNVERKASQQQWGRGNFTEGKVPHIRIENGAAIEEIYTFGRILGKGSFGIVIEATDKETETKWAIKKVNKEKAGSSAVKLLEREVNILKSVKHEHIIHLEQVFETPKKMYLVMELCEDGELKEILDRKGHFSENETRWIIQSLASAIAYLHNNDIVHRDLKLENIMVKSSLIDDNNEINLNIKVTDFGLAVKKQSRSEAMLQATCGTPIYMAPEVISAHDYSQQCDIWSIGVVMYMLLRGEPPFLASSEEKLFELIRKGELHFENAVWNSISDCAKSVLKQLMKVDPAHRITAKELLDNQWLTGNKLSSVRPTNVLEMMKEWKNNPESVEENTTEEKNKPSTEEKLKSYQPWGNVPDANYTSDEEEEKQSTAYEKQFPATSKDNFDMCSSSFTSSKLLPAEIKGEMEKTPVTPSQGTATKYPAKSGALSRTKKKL
# Method in brief: as §1
# MEK6 = target: T20, MEK6 (Homo sapiens, UniProt P52564)
# T20 construct: host or cells: E. coli host derived from the BL21 strain, infected with T7 phage
# Method in brief: as §1
# [2] = target: T21, RPS6KA2(Kin.Dom.-1-N-terminal) (Homo sapiens, UniProt Q15349)
# T21 construct: RPS6KA2(Kin.Dom.-1-N-terminal); host or cells: E. coli host derived from BL21, T7 phage display
# Method in brief: as §1
# ADCK3 = target: T22, ADCK3 (Homo sapiens, UniProt Q8NI60)
# T22 construct: host or cells: E. coli (BL21-derived), T7 phage lysate
# Method in brief: as §1
# RAF1 = target: T23, RAF1 (Homo sapiens, UniProt P04049)
# T23 construct: host or cells: E. coli host derived from BL21, T7 phage display
# T23 sequence (P04049 whole entry): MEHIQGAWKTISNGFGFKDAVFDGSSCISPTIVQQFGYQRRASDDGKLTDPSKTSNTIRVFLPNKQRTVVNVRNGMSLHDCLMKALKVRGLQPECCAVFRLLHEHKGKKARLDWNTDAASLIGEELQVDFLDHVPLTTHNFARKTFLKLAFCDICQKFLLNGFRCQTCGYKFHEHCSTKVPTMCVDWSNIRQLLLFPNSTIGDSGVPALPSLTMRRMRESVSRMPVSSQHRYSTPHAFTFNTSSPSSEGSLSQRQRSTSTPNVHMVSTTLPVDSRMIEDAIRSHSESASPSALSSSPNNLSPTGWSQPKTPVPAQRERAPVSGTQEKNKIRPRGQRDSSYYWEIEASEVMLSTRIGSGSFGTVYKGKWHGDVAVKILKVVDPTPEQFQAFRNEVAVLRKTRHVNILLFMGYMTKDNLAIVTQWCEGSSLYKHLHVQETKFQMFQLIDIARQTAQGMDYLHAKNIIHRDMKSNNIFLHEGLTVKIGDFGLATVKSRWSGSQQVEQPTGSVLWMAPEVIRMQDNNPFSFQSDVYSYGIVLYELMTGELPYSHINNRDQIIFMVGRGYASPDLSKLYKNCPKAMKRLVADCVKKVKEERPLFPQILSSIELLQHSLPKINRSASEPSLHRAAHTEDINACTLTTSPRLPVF
# Method in brief: as §1
# ZAK = target: T24, ZAK (Homo sapiens, UniProt Q9NYL2)
# T24 construct: host or cells: T7 phage grown in an E. coli host derived from BL21
# T24 sequence (Q9NYL2 whole entry): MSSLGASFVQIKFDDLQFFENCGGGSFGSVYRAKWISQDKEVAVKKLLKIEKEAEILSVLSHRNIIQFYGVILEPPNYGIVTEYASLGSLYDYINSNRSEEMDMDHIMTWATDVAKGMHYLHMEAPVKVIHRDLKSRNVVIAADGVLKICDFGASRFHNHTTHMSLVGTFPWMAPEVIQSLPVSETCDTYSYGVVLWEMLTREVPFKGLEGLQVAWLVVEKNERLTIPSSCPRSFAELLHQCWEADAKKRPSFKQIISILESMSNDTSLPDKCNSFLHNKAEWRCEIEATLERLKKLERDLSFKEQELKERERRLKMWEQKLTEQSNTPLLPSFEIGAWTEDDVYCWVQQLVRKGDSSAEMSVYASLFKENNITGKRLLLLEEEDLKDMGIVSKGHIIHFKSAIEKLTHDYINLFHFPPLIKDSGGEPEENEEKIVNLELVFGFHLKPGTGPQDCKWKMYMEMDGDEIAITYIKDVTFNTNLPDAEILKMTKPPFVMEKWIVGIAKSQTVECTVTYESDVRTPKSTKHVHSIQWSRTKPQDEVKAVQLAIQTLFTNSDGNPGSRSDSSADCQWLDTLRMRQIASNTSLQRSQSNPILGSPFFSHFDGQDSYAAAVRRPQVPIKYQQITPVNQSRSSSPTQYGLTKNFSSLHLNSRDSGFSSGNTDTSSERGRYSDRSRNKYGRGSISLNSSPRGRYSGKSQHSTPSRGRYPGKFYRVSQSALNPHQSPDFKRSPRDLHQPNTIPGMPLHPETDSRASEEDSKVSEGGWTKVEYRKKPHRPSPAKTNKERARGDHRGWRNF
# Method in brief: as §1
# HIPK1 = target: T25, HIPK1 (Homo sapiens, UniProt Q86Z02)
# T25 construct: host or cells: T7 phage in E. coli host derived from BL21
# Method in brief: as §1
# ERK3 = target: T26, ERK3 (Homo sapiens, UniProt Q16659)
# T26 construct: purchased Ambit Biosciences Corp; host or cells: T7 phage in E. coli host derived from BL21
# Method in brief: as §1
# EPHA4 = target: T27, EPHA4 (Homo sapiens, UniProt P54764)
# T27 construct: purchased Ambit Biosciences Corp; host or cells: T7 phage in E. coli host derived from BL21
# Method in brief: as §1
# PIK3C2B = target: T28, PIK3C2B (Homo sapiens, UniProt O00750)
# T28 construct: host or cells: E. coli host derived from BL21, infected with T7 phage
# Method in brief: as §1
# [3] = target: T29, RPS6KA4(Kin.Dom.-1-N-terminal) (Homo sapiens, UniProt O75676)
# T29 construct: RPS6KA4(Kin.Dom.-1-N-terminal); host or cells: E. coli host derived from BL21, T7 phage display
# Method in brief: as §1
# MYO3B = target: T30, MYO3B (Homo sapiens, UniProt Q8WXR4)
# T30 construct: host or cells: T7 phage grown in E. coli host derived from BL21
# Method in brief: as §1
# TAOK3 = target: T31, TAOK3 (Homo sapiens, UniProt Q9H2K8)
# T31 construct: host or cells: T7 phage grown in E. coli (BL21-derived)
# Method in brief: as §1
smiles,measurement,setting,value
"C#Cc1cccc(Nc2ncnc3cc(OC)c(OCCCN4CCOCC4)cc23)c1 [NRC-2694, N-(3-ethynylphenyl)-7-methoxy-6-[3-(4-morpholinyl)propoxy]-4-quinazolinamine]",remaining binding at 10 µM,SRPK1,40%
same,remaining binding at 10 µM,DAPK1,26%
same,remaining binding at 10 µM,TIE1,52%
same,remaining binding at 10 µM,ROCK2,38%
same,remaining binding at 10 µM,DCAMKL3,14%
same,remaining binding at 10 µM,PRKCD,84%
same,remaining binding at 10 µM,AAK1,38%
same,remaining binding at 10 µM,[1],85%
same,remaining binding at 10 µM,RIOK2,43%
same,remaining binding at 10 µM,LIMK1,62%
same,remaining binding at 10 µM,CAMK4,92%
same,remaining binding at 10 µM,EGFR(L858R),0%
same,remaining binding at 10 µM,CDC2L2,37%
same,remaining binding at 10 µM,DRAK2,58%
same,remaining binding at 10 µM,DMPK2,61%
same,remaining binding at 10 µM,RET(V804M),100%
same,remaining binding at 10 µM,TNK1,41%
same,remaining binding at 10 µM,YANK3,100%
same,remaining binding at 10 µM,STK33,43%
same,remaining binding at 10 µM,MEK6,75%
same,remaining binding at 10 µM,[2],70%
same,remaining binding at 10 µM,ADCK3,14%
same,remaining binding at 10 µM,RAF1,100%
same,remaining binding at 10 µM,ZAK,74%
same,remaining binding at 10 µM,HIPK1,70%
same,remaining binding at 10 µM,ERK3,10%
same,remaining binding at 10 µM,EPHA4,64%
same,remaining binding at 10 µM,PIK3C2B,93%
same,remaining binding at 10 µM,[3],84%
same,remaining binding at 10 µM,MYO3B,100%
same,remaining binding at 10 µM,TAOK3,76%
